Experimental data published in ChEMBL document CHEMBL1909639, “Synthesis, stereochemistry and in vitro antimicrobial evaluation of novel 2-[(2,4-diaryl-3-azabicyclo[3.3.1]nonan-9-ylidene)hydrazono]-4-phenyl-2,3-dihydrothiazoles” (2011).
In brackets after ≈: the same amount, converted by molar mass. Activity calls are given as the source filed them. No cut-off for these calls is given here.

Assays:
Cryptococcus neoformans [1] = test: Antifungal activity against Cryptococcus neoformans ATCC 3312 after 72 to 96 hrs by twofold serial dilution method; format: functional
Escherichia coli [2] = test: Antibacterial activity against Escherichia coli ATCC 25835 at 200 ug/mL after 24 hrs by twofold serial dilution method; format: functional, organism-based
Staphylococcus aureus = test: Antibacterial activity against Staphylococcus aureus ATCC 25825 after 24 hrs by twofold serial dilution method; format: functional; settings: ATCC 25825, 24 h
Candida albicans = test: Antifungal activity against Candida albicans ATCC 3122 by twofold serial dilution method; format: functional
Klebsiella pneumoniae [3] = test: Antibacterial activity against Klebsiella pneumoniae ATCC 15490 after 24 hrs by twofold serial dilution method; format: functional; settings: ATCC 15490, 24 h
Aspergillus niger = test: Antifungal activity against Aspergillus niger ATCC 598 after 72 to 96 hrs by twofold serial dilution method; format: functional
Salmonella typhi [4] = test: Antibacterial activity against Salmonella typhi ATCC 24915 after 24 hrs by twofold serial dilution method; format: functional, Salmonella enterica subsp. enterica serovar Typhi; settings: Salmonella enterica, ATCC 24915, 24 h
Aspergillus flavus [5] = test: Antifungal activity against Aspergillus flavus ATCC 485 at 200 ug/mL after 72 to 96 hrs by twofold serial dilution method; format: functional, organism-based
Rhizopus [6] = test: Antifungal activity against Rhizopus sp. ATCC 2915 after 72 to 96 hrs by twofold serial dilution method; format: functional
Bacillus subtilis [7] = test: Antibacterial activity against Bacillus subtilis ATCC 451 after 24 hrs by twofold serial dilution method; format: functional; settings: ATCC 451, 24 h
Klebsiella pneumoniae [8] = test: Antibacterial activity against Klebsiella pneumoniae ATCC 15490 at 200 ug/mL after 24 hrs by twofold serial dilution method; format: functional, organism-based
Escherichia coli [9] = test: Antibacterial activity against Escherichia coli ATCC 25835 after 24 hrs by twofold serial dilution method; format: functional; settings: ATCC 25835, 24 h
Aspergillus flavus [10] = test: Antifungal activity against Aspergillus flavus ATCC 485 after 72 to 96 hrs by twofold serial dilution method; format: functional
Escherichia coli [11] = test: Ratio of compound MIC over streptomycin MIC for Escherichia coli ATCC 25835; format: functional
Rhizopus [12] = test: Antifungal activity against Rhizopus sp. ATCC 2915 at 200 ug/mL after 72 to 96 hrs by twofold serial dilution method; format: functional, organism-based
Bacillus subtilis [13] = test: Antibacterial activity against Bacillus subtilis ATCC 451 at 200 ug/mL after 24 hrs by twofold serial dilution method; format: functional, organism-based
Cryptococcus neoformans [14] = test: Antifungal activity against Cryptococcus neoformans ATCC 3312 at 200 ug/mL after 72 to 96 hrs by twofold serial dilution method; format: functional, organism-based
Salmonella typhi [15] = test: Antibacterial activity against Salmonella typhi ATCC 24915 at 200 ug/mL after 24 hrs by twofold serial dilution method; format: functional, organism-based; settings: Salmonella enterica subsp. enterica serovar Typhi

Compound: c1ccc(-c2cs/c(=N\N=C3\C4CCCC3[C@H](c3ccccc3)N[C@@H]4c3ccccc3)[nH]2)cc1
- MIC (Cryptococcus neoformans [1]): 100 µg/mL (≈ 215 µM)
- Activity (Escherichia coli [2]): inactive
- MIC (Staphylococcus aureus): 25 µg/mL (≈ 53.8 µM)
- MIC (Candida albicans): 200 µg/mL (≈ 430 µM)
- MIC (Klebsiella pneumoniae [3]): 100 µg/mL (≈ 215 µM)
- MIC (Aspergillus niger): 50 µg/mL (≈ 108 µM)
- MIC (Salmonella typhi [4]): 100 µg/mL (≈ 215 µM)
- Activity (Aspergillus flavus [5]): inactive
- MIC (Rhizopus [6]): 200 µg/mL (≈ 430 µM)
- MIC (Bacillus subtilis [7]): 200 µg/mL (≈ 430 µM)

Compound: c1ccc(-c2cs/c(=N\N=C3\C4CCCC3[C@H](c3ccccc3)N[C@@H]4c3ccccc3)n2-c2ccccc2)cc1
- MIC (Cryptococcus neoformans [1]): 50 µg/mL (≈ 92.5 µM)
- Activity (Klebsiella pneumoniae [8]): inactive
- MIC (Escherichia coli [9]): 200 µg/mL (≈ 370 µM)
- MIC (Staphylococcus aureus): 25 µg/mL (≈ 46.2 µM)
- MIC (Candida albicans): 12.5 µg/mL (≈ 23.1 µM)
- MIC (Aspergillus niger): 200 µg/mL (≈ 370 µM)
- MIC (Salmonella typhi [4]): 100 µg/mL (≈ 185 µM)
- MIC (Rhizopus [6]): 200 µg/mL (≈ 370 µM)
- MIC (Aspergillus flavus [10]): 100 µg/mL (≈ 185 µM)
- MIC (Bacillus subtilis [7]): 100 µg/mL (≈ 185 µM)

Compound: Clc1ccccc1[C@H]1N[C@@H](c2ccccc2Cl)C2CCCC1/C2=N/N=c1/[nH]c(-c2ccccc2)cs1
- MIC (Cryptococcus neoformans [1]): 6.25 µg/mL (≈ 11.7 µM)
- MIC (Escherichia coli [9]): 6.25 µg/mL (≈ 11.7 µM)
- MIC (Staphylococcus aureus): 100 µg/mL (≈ 187 µM)
- MIC (Candida albicans): 25 µg/mL (≈ 46.9 µM)
- MIC (Klebsiella pneumoniae [3]): 100 µg/mL (≈ 187 µM)
- MIC (Aspergillus niger): 100 µg/mL (≈ 187 µM)
- MIC (Salmonella typhi [4]): 25 µg/mL (≈ 46.9 µM)
- Ratio (Escherichia coli [11]): 1
- MIC (Rhizopus [6]): 100 µg/mL (≈ 187 µM)
- MIC (Aspergillus flavus [10]): 50 µg/mL (≈ 93.7 µM)
- MIC (Bacillus subtilis [7]): 12.5 µg/mL (≈ 23.4 µM)

Compound: Fc1cccc([C@H]2N[C@@H](c3cccc(F)c3)C3CCCC2/C3=N/N=c2/[nH]c(-c3ccccc3)cs2)c1
- MIC (Cryptococcus neoformans [1]): 50 µg/mL (≈ 99.9 µM)
- MIC (Escherichia coli [9]): 25 µg/mL (≈ 49.9 µM)
- Activity (Rhizopus [12]): inactive
- Activity (Bacillus subtilis [13]): inactive
- MIC (Staphylococcus aureus): 12.5 µg/mL (≈ 25 µM)
- MIC (Candida albicans): 100 µg/mL (≈ 200 µM)
- MIC (Klebsiella pneumoniae [3]): 25 µg/mL (≈ 49.9 µM)
- MIC (Aspergillus niger): 200 µg/mL (≈ 400 µM)
- MIC (Salmonella typhi [4]): 200 µg/mL (≈ 400 µM)
- MIC (Aspergillus flavus [10]): 100 µg/mL (≈ 200 µM)

Compound: CN[C@@H]1[C@H](O[C@H]2[C@H](O[C@H]3[C@H](O)[C@@H](O)[C@H](N=C(N)N)[C@@H](O)[C@@H]3N=C(N)N)O[C@@H](C)[C@]2(O)C=O)O[C@@H](CO)[C@H](O)[C@H]1O [STREPTOMYCIN]
- MIC (Escherichia coli [9]): 12.5 µg/mL (≈ 21.5 µM)
- MIC (Staphylococcus aureus): 50 µg/mL (≈ 86 µM)
- MIC (Klebsiella pneumoniae [3]): 25 µg/mL (≈ 43 µM)
- MIC (Salmonella typhi [4]): 50 µg/mL (≈ 86 µM)
- MIC (Bacillus subtilis [7]): 12.5 µg/mL (≈ 21.5 µM)

Compound: Clc1ccc([C@H]2N[C@@H](c3ccc(Cl)cc3)C3CCCC2/C3=N/N=c2\scc(-c3ccccc3)n2-c2ccccc2)cc1
- MIC (Cryptococcus neoformans [1]): 50 µg/mL (≈ 82 µM)
- Activity (Klebsiella pneumoniae [8]): inactive
- MIC (Escherichia coli [9]): 100 µg/mL (≈ 164 µM)
- MIC (Staphylococcus aureus): 25 µg/mL (≈ 41 µM)
- MIC (Candida albicans): 100 µg/mL (≈ 164 µM)
- MIC (Aspergillus niger): 25 µg/mL (≈ 41 µM)
- MIC (Salmonella typhi [4]): 25 µg/mL (≈ 41 µM)
- MIC (Rhizopus [6]): 6.25 µg/mL (≈ 10.3 µM)
- MIC (Aspergillus flavus [10]): 100 µg/mL (≈ 164 µM)
- MIC (Bacillus subtilis [7]): 12.5 µg/mL (≈ 20.5 µM)

Compound: C[C@@H]1[C@H](O)[C@@H](C)/C=C/C=C/C=C/C=C/C=C/C=C/C=C/[C@H](O[C@@H]2O[C@H](C)[C@@H](O)[C@H](N)[C@@H]2O)C[C@@H]2O[C@](O)(C[C@@H](O)C[C@@H](O)[C@H](O)CC[C@@H](O)C[C@@H](O)CC(=O)O[C@H]1C)C[C@H](O)[C@H]2C(=O)O [AMPHOTERICIN B]
- MIC (Cryptococcus neoformans [1]): 25 µg/mL (≈ 27.1 µM)
- MIC (Candida albicans): 25 µg/mL (≈ 27.1 µM)
- MIC (Aspergillus niger): 50 µg/mL (≈ 54.1 µM)
- MIC (Rhizopus [6]): 25 µg/mL (≈ 27.1 µM)
- MIC (Aspergillus flavus [10]): 50 µg/mL (≈ 54.1 µM)

Compound: Fc1ccc([C@H]2N[C@@H](c3ccc(F)cc3)C3CCCC2/C3=N/N=c2\scc(-c3ccccc3)n2-c2ccccc2)cc1
- Activity (Cryptococcus neoformans [14]): inactive
- MIC (Escherichia coli [9]): 100 µg/mL (≈ 173 µM)
- MIC (Staphylococcus aureus): 12.5 µg/mL (≈ 21.7 µM)
- MIC (Candida albicans): 12.5 µg/mL (≈ 21.7 µM)
- MIC (Klebsiella pneumoniae [3]): 100 µg/mL (≈ 173 µM)
- MIC (Aspergillus niger): 100 µg/mL (≈ 173 µM)
- MIC (Salmonella typhi [4]): 50 µg/mL (≈ 86.7 µM)
- MIC (Rhizopus [6]): 50 µg/mL (≈ 86.7 µM)
- MIC (Aspergillus flavus [10]): 200 µg/mL (≈ 347 µM)
- MIC (Bacillus subtilis [7]): 6.25 µg/mL (≈ 10.8 µM)

Compound: Cc1ccc([C@H]2N[C@@H](c3ccc(C)cc3)C3CCCC2/C3=N/N=c2/[nH]c(-c3ccccc3)cs2)cc1
- Activity (Cryptococcus neoformans [14]): inactive
- MIC (Escherichia coli [9]): 12.5 µg/mL (≈ 25.4 µM)
- MIC (Staphylococcus aureus): 200 µg/mL (≈ 406 µM)
- MIC (Candida albicans): 200 µg/mL (≈ 406 µM)
- MIC (Klebsiella pneumoniae [3]): 200 µg/mL (≈ 406 µM)
- MIC (Aspergillus niger): 50 µg/mL (≈ 101 µM)
- MIC (Salmonella typhi [4]): 200 µg/mL (≈ 406 µM)
- MIC (Rhizopus [6]): 12.5 µg/mL (≈ 25.4 µM)
- MIC (Aspergillus flavus [10]): 200 µg/mL (≈ 406 µM)
- MIC (Bacillus subtilis [7]): 50 µg/mL (≈ 101 µM)

Compound: Clc1ccc([C@H]2N[C@@H](c3ccc(Cl)cc3)C3CCCC2/C3=N/N=c2/[nH]c(-c3ccccc3)cs2)cc1
- MIC (Cryptococcus neoformans [1]): 200 µg/mL (≈ 375 µM)
- MIC (Escherichia coli [9]): 100 µg/mL (≈ 187 µM)
- MIC (Staphylococcus aureus): 25 µg/mL (≈ 46.9 µM)
- MIC (Candida albicans): 200 µg/mL (≈ 375 µM)
- MIC (Klebsiella pneumoniae [3]): 100 µg/mL (≈ 187 µM)
- MIC (Aspergillus niger): 25 µg/mL (≈ 46.9 µM)
- MIC (Salmonella typhi [4]): 50 µg/mL (≈ 93.7 µM)
- MIC (Rhizopus [6]): 50 µg/mL (≈ 93.7 µM)
- MIC (Aspergillus flavus [10]): 25 µg/mL (≈ 46.9 µM)
- MIC (Bacillus subtilis [7]): 25 µg/mL (≈ 46.9 µM)

Compound: Fc1ccc([C@H]2N[C@@H](c3ccc(F)cc3)C3CCCC2/C3=N/N=c2/[nH]c(-c3ccccc3)cs2)cc1
- MIC (Cryptococcus neoformans [1]): 100 µg/mL (≈ 200 µM)
- MIC (Escherichia coli [9]): 50 µg/mL (≈ 99.9 µM)
- MIC (Staphylococcus aureus): 200 µg/mL (≈ 400 µM)
- MIC (Candida albicans): 100 µg/mL (≈ 200 µM)
- MIC (Klebsiella pneumoniae [3]): 12.5 µg/mL (≈ 25 µM)
- MIC (Aspergillus niger): 12.5 µg/mL (≈ 25 µM)
- MIC (Salmonella typhi [4]): 50 µg/mL (≈ 99.9 µM)
- MIC (Rhizopus [6]): 50 µg/mL (≈ 99.9 µM)
- MIC (Aspergillus flavus [10]): 6.25 µg/mL (≈ 12.5 µM)
- MIC (Bacillus subtilis [7]): 12.5 µg/mL (≈ 25 µM)

Compound: COc1ccc([C@H]2N[C@@H](c3ccc(OC)cc3)C3CCCC2/C3=N/N=c2/[nH]c(-c3ccccc3)cs2)cc1
- MIC (Cryptococcus neoformans [1]): 12.5 µg/mL (≈ 23.8 µM)
- MIC (Escherichia coli [9]): 100 µg/mL (≈ 191 µM)
- Activity (Bacillus subtilis [13]): inactive
- MIC (Staphylococcus aureus): 25 µg/mL (≈ 47.6 µM)
- MIC (Candida albicans): 100 µg/mL (≈ 191 µM)
- MIC (Klebsiella pneumoniae [3]): 200 µg/mL (≈ 381 µM)
- MIC (Aspergillus niger): 25 µg/mL (≈ 47.6 µM)
- Activity (Salmonella typhi [15]): inactive
- MIC (Rhizopus [6]): 100 µg/mL (≈ 191 µM)
- MIC (Aspergillus flavus [10]): 12.5 µg/mL (≈ 23.8 µM)

Compound: Fc1cccc([C@H]2N[C@@H](c3cccc(F)c3)C3CCCC2/C3=N/N=c2\scc(-c3ccccc3)n2-c2ccccc2)c1
- MIC (Cryptococcus neoformans [1]): 200 µg/mL (≈ 347 µM)
- MIC (Escherichia coli [9]): 12.5 µg/mL (≈ 21.7 µM)
- MIC (Staphylococcus aureus): 50 µg/mL (≈ 86.7 µM)
- MIC (Candida albicans): 12.5 µg/mL (≈ 21.7 µM)
- MIC (Klebsiella pneumoniae [3]): 100 µg/mL (≈ 173 µM)
- MIC (Aspergillus niger): 25 µg/mL (≈ 43.3 µM)
- MIC (Salmonella typhi [4]): 12.5 µg/mL (≈ 21.7 µM)
- MIC (Rhizopus [6]): 100 µg/mL (≈ 173 µM)
- MIC (Aspergillus flavus [10]): 200 µg/mL (≈ 347 µM)
- MIC (Bacillus subtilis [7]): 100 µg/mL (≈ 173 µM)
